Tests used:
Echinochloa crus-galli = assay: Paddy pot test, herbicidal effect on Echinochloa crus-galli; assay type: in vivo; set-up: scale not given here; conditions: Screening, 63 g/ha, applied at 1.5-leaf stage, examined after 3 weeks
Procedure: (§1) Plastic pots having an area of 100 cm^2 and a depth of 10 cm were filled with paddy soil which is puddled by adding water, and seeds of Echinochloa crus-galli and Scirpus juncoides were planted in the pots. After seeding, rice plants at the 2.5-leaf stage were transplanted and the pots were filled with water. The rice plants were grown in a greenhouse. […] The herbicidal effects and harmful effects on the rice plants were examined after 3 weeks. Herbicidal effects were examined according to the examination criteria described below and were represented by the herbicidal index. [table] […] [formula]

Scirpus juncoides = assay: Paddy pot test, herbicidal effect on Scirpus juncoides; assay type: in vivo; set-up: scale not given here; conditions: Screening, 63 g/ha, examined after 3 weeks
Procedure: as §1

rice plants = assay: Paddy pot test, harmful effects on transplanted rice plants; assay type: in vivo; set-up: scale not given here; conditions: Screening, 63 g/ha, applied at Echinochloa crus-galli 1.5-leaf stage, examined after 3 weeks
Procedure: as §1

| SMILES | Echinochloa crus-galli (herbicidal index) (Echinochloa crus-galli) | Scripus juncoides (herbicidal index) (Scirpus juncoides) | Rice (harmful effects on the rice plants, index) (rice plants) | melting point [°C] |
| --- | --- | --- | --- | --- |
| COc1c(N=S2(=O)CCCCC2)cccc1C(=O)c1cnn(C)c1O [Example 131] | 6 | 8 | 0 | 121 to 123 |
| COc1ccc(C(=O)c2cnn(C)c2O)c(Cl)c1N=S(C)(=O)C(C)C (centres unmarked) [Example 210] | 6 | 9 | 0 | 167 to 169 |
| C=C(C)c1ccc(C(=O)c2cnn(C)c2O)c(Cl)c1N=S1(=O)CCCCC1 [Example 204] | 5 | 7 | 0 | – |
| CCN(CC)CC.COc1ccc(C(=O)c2cnn(C)c2O)c(Cl)c1N=S1(=O)CCCCC1 [Example 137] | 10 | 8 | 0 | – |
| COC(=O)c1ccc(C(=O)c2cnn(C)c2OC(=O)SC(C)C)c(Cl)c1N=S1(=O)CCCCC1 [Example 201] | 5 | 7 | 0 | – |
| COc1ccc(C(=O)C2=C(O)CCCC2=O)c(Cl)c1N=S(C)(=O)Cc1ccccc1 (centres unmarked) [Example 120] | 8 | 5 | 0 | – |
| C=Cc1ccc(C(=O)c2cnn(C)c2O)c(Cl)c1N=S1(=O)CCCCC1 [Example 108] | 10 | 8 | 0 | – |
| COC(=O)n1cc(C(=O)c2ccc(OC)c(N=S3(=O)CCCCC3)c2Cl)c(=O)n1C [Example 105] | 10 | 8 | 0 | – |
| C#Cc1ccc(C(=O)C2=C(O)CCCC2=O)c(Cl)c1N=S1(=O)CCCCC1 [Example 173] | 5 | 7 | 0 | – |
| COc1ccc(C(=O)c2cnn(C)c2OC(=O)c2ccccc2)c(Cl)c1N=S1(=O)CCCCC1 [Example 138] | 10 | 8 | 0 | – |
| COC(=O)Oc1c(C(=O)c2ccc(OC)c(N=S3(=O)CCCCC3)c2Cl)cnn1C [Example 104] | 10 | 9 | 0 | – |
| C=C(C)c1ccc(C(=O)c2cnn(C)c2OC(=O)SC)c(Cl)c1N=S1(=O)CCCCC1 [Example 207] | 6 | 7 | 0 | – |
| CCCSC(=O)Oc1c(C(=O)c2ccc(C(=O)OC)c(N=S3(=O)CCCCC3)c2Cl)cnn1C [Example 202] | 7 | 7 | 0 | – |
| CSC(=O)Oc1c(C(=O)c2cccc(N=S3(=O)CCCCC3)c2Br)cnn1C [Example 197] | 7 | 7 | 0 | – |
| COc1ccc(C(=O)c2cnn(C)c2OCC(=O)c2ccccc2)c(Cl)c1N=S1(=O)CCCCC1 [Example 116] | 7 | 8 | 0 | – |
| Cn1ncc(C(=O)c2ccc(CO)c(N=S3(=O)CCCCC3)c2Cl)c1O [Example 117] | 5 | 8 | 0 | – |

| SMILES | Echinochloa crus-galli (herbicidal index) (Echinochloa crus-galli) | Scripus juncoides (herbicidal index) (Scirpus juncoides) | Rice (harmful effects on the rice plants, index) (rice plants) | melting point [°C] |
| --- | --- | --- | --- | --- |
| CCS(=O)(CC)=Nc1c(C(=O)OC)ccc(C(=O)C2=C(O)CCCC2=O)c1Cl [Example 148] | 6 | 8 | 0 | – |
| CCCS(=O)(=O)Oc1c(C(=O)c2ccc(OC)c(N=S3(=O)CCCCC3)c2Cl)cnn1C [Example 130] | 10 | 8 | 0 | – |
| COC(=O)c1ccc(C(=O)c2cnn(C)c2OC(=O)SC)c(Cl)c1N=S1(=O)CCCCC1 [Example 152] | 10 | 8 | 0 | – |
| COc1ccc(C(=O)c2cn(C(=O)SC)n(C)c2=O)c(Cl)c1N=S1(=O)CCCCC1 [Example 155] | 8 | 8 | 0 | – |
| CCCS(=O)(CCC)=Nc1c(OC)ccc(C(=O)c2cnn(C)c2O)c1Cl [Example 145] | 10 | 8 | 0 | – |
| CCS(=O)(CC)=Nc1c(OC)ccc(C(=O)c2cnn(C)c2OCc2ccc3ccccc3c2)c1Cl [Example 248] | 5 | 8 | 0 | – |
| COc1ccc(C(=O)c2cnn(C)c2OCc2ccc3ccccc3c2)c(Cl)c1N=S(C)(=O)Cc1ccccc1 (centres unmarked) [Example 121] | 7 | 7 | 0 | – |
| COC(=O)c1ccc(C(=O)C(C#N)C(=O)C2CC2)c(Cl)c1N=S1(=O)CCCCC1 (centres unmarked) [Example 165] | 5 | 8 | 0 | – |
| C#Cc1ccc(C(=O)c2cnn(C)c2O)c(Cl)c1N=S1(=O)CCCCC1 [Example 166] | 6 | 8 | 0 | – |
| Cc1ccc(C(=O)C2=C(O)CCCC2=O)c(C)c1N=S1(=O)CCCCC1 [Example 110] | 10 | 8 | 0 | – |
| COc1ccc(C(=O)c2cnn(C)c2OCc2ccc3ccccc3c2)c(F)c1N=S1(=O)CCCCC1 [Example 113] | 7 | 6 | 0 | – |
| Cc1ccc(C(=O)c2c(C)nn(C)c2OCc2ccc3ccccc3c2)c(C)c1N=S1(=O)CCCCC1 [Example 111] | 6 | 8 | 0 | – |
| COc1ccc(C(=O)c2cnn(C)c2OCc2ccc3ccccc3c2)c(Cl)c1N=S1(=O)CCCC1 [Example 129] | 7 | 8 | 0 | – |
| CCOc1ccc(C(=O)c2cnn(C)c2OC(=O)SC)c(OC)c1N=S1(=O)CCCCC1 [Example 177] | 5 | 7 | 0 | – |
| CCS(=O)(CC)=Nc1c(C)ccc(C(=O)C2=C(O)CCCC2=O)c1C [Example 158] | 5 | 5 | 0 | – |
| COc1ccc(C(=O)c2cnn(C)c2OCc2ccc3ccccc3c2)c(Cl)c1N=S(C)(C)=O [Example 151] | 6 | 5 | 0 | – |

— patent US20110144345A1, “SULFOXYIMINO-SUBSTITUTED BENZOYL DERIVATIVE AND HERBICIDE” (NIPPON SODA CO., LTD., priority 2008, published 2011)
